Measurements taken from patent US20260174786A1, “A NITROGEN-CONTAINING SPIROCYCLIC COMPOUND, PHARMACEUTICAL COMPOSITION AND USE THEREOF” (Prime Gene Therapeutics Co., Ltd., priority 2022, published 2026).
Each block holds one compound with its values, some of them ahead of it.

Legend:
[1] = Liver microsome metabolism stability test (human); type: in vitro ADME; settings: human liver microsomes, 1 μM compound
Protocol: (§1) Two separate experiments were conducted. a) NADPH: 10 μL of 20 mg/mL liver microsomes and 40 μL of 10 mM NADPH were added to a culture medium. The final concentrations of microsomes and NADPH were 0.5 mg/mL and 1 mM, respectively. b) NADPH free: 10 μL of 20 mg/mL liver microsomes and 40 μL of ultrapure H2O were added to a culture medium. The final concentration of microsomes was 0.5 mg/mL.
(§2) At the beginning of the reaction, 4 μL of 100 μM test compound solution or a control compound solution with a final concentration of 1 μM were added, and proceed at 37° C.
(§3) 50 μL aliquots were taken from the reaction solution at 0, 7, 15, 30, and 60 minutes. The reaction was stopped by adding 4 volumes of cold acetonitrile and IS (100 nM alprazolam, 200 nM labetalol, 200 nM caffeine, and 2 μM ketoprofen). The samples were centrifuged at 3220 grams for 40 minutes. 100 μL supernatant divided equally was mixed with 100 μL of ultrapure H2O, and use for LC-MS/MS analysis.

[2] = Pharmacokinetic experiments in male SD rats; type: in vivo, rat
Protocol: Male SD rats were grouped in groups of 3 rats each and orally administered with the compound of Example (10 mg/kg) and intravenously injected with the compound of Example (2 mg/kg). Animals were fasted overnight before the experiment, from 10 hours before administration to 4 hours after administration. Blood samples were collected at 0.25, 0.5, 1, 2, 4, 8, and 24 hours after administration in the oral group, and at 0.083, 0.25, 0.5, 1, 2, 4, 8, and 24 hours after injection in the intravenous group. After anesthesia with isoflurane using a small animal anesthesia machine, 0.3 mL of whole blood was collected through the retinal venous plexus, and placed in a heparin anticoagulant tube. The sample was centrifuged at 4° C. and 4000 rpm for 5 minutes, and the plasma was transferred to the centrifuge tube and stored at −80° C. until analysis. The plasma samples were extracted using protein precipitation method, and the extract was analyzed by LC-MS/MS.

[3] = Balanced dialysis plasma protein binding test (human); type: in vitro ADME
Protocol: 1. Immersing a dialysis membrane (water: 60 minutes, 20% ethanol: 20 minutes, dialysis buffer: 20 minutes). 2. Diluting the test compound in dimethyl sulfoxide (working solution) to 200 μM. 3. Thawing the plasma in a 37° C. water bath and centrifuge the plasma at 3220 g for 10 minutes to remove blood clots. 4. Transferring the supernatant to a new tube and preheating it in a 37° C. water bath for 10 minutes. 5. Assembling HTD dialysis equipment according to the manufacturer's guidelines. 6. Adding 3 μL of 200 μM test compound to 597 μL of plasma and rotating at 1000 rpm for 2 minutes. 7. Transferring 50 μL of spiked plasma to a 96 well plate, then adding 50 μL of dialysis buffer and 200 μL of methanol, using IS * as the T0 sample. 8. Adding 120 μL of spiked plasma and 120 μL of dialysis buffer in duplicate into the chamber of the HTD dialysis device. 9. Covering the dialysis equipment with a breathable cover and incubating the dialysis equipment and the remaining spiked plasma at 37° C. (100 rpm, 5% CO2) for 6 hours. 10. Transferring 50 μL of dialyzed sample from the dialysis buffer and the plasma chamber to a separate 96 well plate, then adding 50 μL of blank plasma or dialysis buffer and 200 μL of methanol, with IS * as the B and P samples. 11. Transferring 50 μL of remaining spiked plasma (as described in step 9) to a 96 well plate, then adding 50 μL of dialysis buffer and 200 μL of methanol, with IS * as the T6 sample. 12. Centrifuging the sample plate at 3220 g for 40 minutes. 13. Transferring 100 μL of supernatant onto an analytical plate containing an appropriate volume of water for LC-MS/MS. 14. Data analysis.

[4] = Liver microsome metabolism stability test (rat); type: in vitro ADME; settings: rat liver microsomes, 1 μM compound
Protocol: as §1, §2, §3

hTRPV1 = hTRPV1 (Homo sapiens, UniProt Q8NER1); assay: Inhibition rate on different hTRPs: hTRPV1; type: cell-based
Chain of hTRPV1 (Q8NER1 whole entry): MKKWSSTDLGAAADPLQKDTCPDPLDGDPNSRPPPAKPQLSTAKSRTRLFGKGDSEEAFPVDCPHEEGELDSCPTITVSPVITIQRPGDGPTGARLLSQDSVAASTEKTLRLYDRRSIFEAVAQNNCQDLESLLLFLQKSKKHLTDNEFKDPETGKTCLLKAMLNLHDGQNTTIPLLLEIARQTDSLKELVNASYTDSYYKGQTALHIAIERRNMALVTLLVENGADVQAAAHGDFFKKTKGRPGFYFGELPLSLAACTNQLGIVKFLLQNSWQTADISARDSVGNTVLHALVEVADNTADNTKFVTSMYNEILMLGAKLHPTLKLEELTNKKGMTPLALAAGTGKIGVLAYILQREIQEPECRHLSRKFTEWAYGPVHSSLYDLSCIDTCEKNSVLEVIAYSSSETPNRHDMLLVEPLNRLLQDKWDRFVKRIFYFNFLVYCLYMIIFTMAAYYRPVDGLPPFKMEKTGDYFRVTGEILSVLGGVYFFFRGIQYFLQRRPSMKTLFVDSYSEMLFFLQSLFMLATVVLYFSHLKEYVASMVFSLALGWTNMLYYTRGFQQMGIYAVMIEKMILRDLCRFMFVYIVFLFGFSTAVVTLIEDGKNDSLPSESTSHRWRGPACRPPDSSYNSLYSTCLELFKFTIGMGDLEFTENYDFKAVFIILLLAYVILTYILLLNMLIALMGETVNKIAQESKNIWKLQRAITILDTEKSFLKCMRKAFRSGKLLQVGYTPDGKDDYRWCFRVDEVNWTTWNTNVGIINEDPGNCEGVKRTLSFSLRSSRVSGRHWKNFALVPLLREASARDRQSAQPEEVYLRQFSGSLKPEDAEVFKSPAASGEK

Caco-2 cells = assay: Permeability experiment of Caco-2 cells; type: in vitro ADME; settings: Caco-2, 5 μM
Protocol: (§4) 1. Transwell plate preheating: before laying cells, adding 100 μL of culture medium to the upper layer of Transwell plate and 600 μL of culture medium to the lower layer of Transwell plate, Pre-incubating at 37° C. under 5% CO2 for 1 hour. 2. Treating Caco-2 cells by adding 100 μL of cell suspension (4×10^5 cells/mL) to each well, and cultivating in a 37° C., 5% CO2 incubator for 14-21 days. 3. Changing the cell culture medium every other day within 7 days, and changing it daily after 7 days. 4. Using EVOM3 to measure single-layer epithelial to epithelial resistance (TEER).
(§5) 1. Preheating HBSS (10 mM HEPES, pH 7.4) buffer, cleaning the upper and lower layers of Transwell plates twice each, and incubating at 37° C. for 30 minutes. 2. Working solution: Diluting the test compound HBSS buffer with 1 mM DMSO to 5 μM. 3. A-B direction: Adding 200 μL of 5 μM working solution to the upper layer and 600 μL of HBSS buffer solution to the lower layer; 4. B-A direction: Adding 600 μL of 5 μM working solution to the lower layer and 200 μL of HBSS buffer to the upper layer, and incubating for 2 hours. 5. C0 sample: Taking 100 μL of working solution to a sample plate containing 400 μL of methanol (internal standard). 6. After incubation for 2 hours, taking 100 μL from the upper and lower layers of the chamber to the sample plates containing 400 μL of methanol (internal standard). 7. Mixing and centrifuging, mixing the supernatant with a certain amount of water, and using the sample for LC-MS/MS data analysis. 8. After completing step 6, adding 200 μL of 100 μM fluorescent yellow solution to the upper chamber and 600 μL of HBSS buffer salt solution to the lower chamber. Incubating at 37° C. and 5% CO2 for 30 minutes, and taking out 50 μL of each into a black plate to read the fluorescence value. 9. Data analysis.

[5] = Permeability experiment of Caco-2 cells; type: in vitro ADME; settings: human, pH 7.4, Caco-2, 5 μM
Protocol: as §4, §5

[6] = male, SD, rat, plasma, intravenous, 2 mg/kg
[7] = male, SD, rat, plasma, po, gavage, 10 mg/kg

in vitro Clint [1]: 70.41 microliters/minute/milligrams
half-life at 1 μM ([1]; read-out: in vitro T1/2): 0.328 h
F ([2]; gavage, 10 mg/kg): 80.6%
AUC(0-inf) [2, 6]: 10500 ng·h/mL
C0 [2, 6]: 4060 ng/mL
clearance [2, 6]: 3.3 mL/min/kg
half-life [2, 6]: 1.63 h
Vd ([2]; male, SD, rat, plasma, intravenous, 2 mg/kg, read-out: Vss): 0.41 L/kg
AUC(0-inf) [2, 7]: 42200 ng·h/mL
Cmax [2, 7]: 8050 ng/mL
Tmax [2, 7]: 1.33 h
half-life [2, 7]: 1.88 h
recover % [3]: 87.63%
remaining % ([3]; 6 hours): 97.37%
binding % ([3]; 6 hours dialysis): 99.58%
dissociated % ([3]; 6 hours dialysis): 0.42%
in vitro Clint [4]: 53.68 microliters/minute/milligrams
half-life at 1 μM ([4]; read-out: in vitro T1/2): 0.43 h
SMILES: O=C(c1ccc(F)cn1)N1CCC2(CC(O)c3cc(-c4ccccc4C4CC4)ccc32)C1 (stereo not shown) [Example 15, (5-(2-cyclopropylphenyl)-3-hydroxy-2,3-dihydrospiro[indene-1,3′-pyrrolidine]-1′-yl)(5-fluoropyridin-2-yl) ketone]

inhibition at 0.3 µM (hTRPV1; hTRPV1, 0.3 μM): 5.62%
Selectivity ratio (hTRPV1; inhibition rate on TRPV3 / inhibition rate on hTRPV1, 0.3 μM): 16.0X
Recover A→B % (Caco-2 cells): 49.40%
Recover B→A % (Caco-2 cells): 68.20%
Papp A→B at 2 h, 5 μM ([5]; 2 hours): 20.9 ×10⁻⁶ cm/s
Papp B→A at 2 h, 5 μM ([5]; 2 hours): 9.58 ×10⁻⁶ cm/s
efflux ratio at 2 h, 5 μM ([5]; read-out: External ratio): 0.46
SMILES: O=C(c1ccc(F)cn1)N1CC[C@@]2(C[C@@H](O)c3cc(-c4ccccc4C4CC4)ccc32)C1 [Example 21, ((1S,3R)-5-(2-cyclopropylphenyl)-3-hydroxy-2,3-dihydrospiro[indene-1,3′-pyrrolidine]-1′-yl)(5-fluoropyridin-2-yl)ketone]
